Experimental data: patent US20240261333A1, “NOVEL TARGETS FOR ENHANCING ANTI-TUMOR IMMUNITY” (THE BROAD INSTITUTE, INC., priority 2021, published 2024)

Legend:
[1] = system: A375 cells overexpressing B3GNT2; test: Intra- and extra-cellular poly-LacNAc by tomato lectin staining, flow cytometry; assay type: cell-based, human; details: A375 overexpressing B3GNT2, pretreated with different concentrations of inhibitor
Method: (§1) For glycosylation inhibition, cells were treated with 20 μg/mL Kifunensine (Cayman Chemical 10009437) or 2 mM Benzyl 2-acetamido-2-deoxy-alpha-D-galactopyranoside (BAG; Millipore Sigma B4894-100MG) for 48 h to inhibit N- and O-glycosylation respectively unless otherwise indicated. For MCL1 inhibition, cells were treated with 1-10 μM of S63845 (Selleck Chemicals S8383) or AZD5991 (Selleck Chemicals S8643) for 4 h before incubation with T cells. Both glycosylation and MCL1 inhibitors were maintained at indicated concentrations during co-culture with T cells.
Per condition, 5×10^5 cells were pelleted at 200×g for 5 min and washed once with PBS. Cell were fixed in 4% Formaldehyde in PBS at 4° C. for 10 mins. […] For each sample, 10,000 cells were analyzed on a CytoFLEX Flow Cytometer (Beckman Coulter) and quantified with FlowJo (FlowJo). For each experiment, median fluorescence values for 3 biological replicates were compared to determine statistical significance.

[2] = system: A375 (NY-ESO-1+, HLA-A2+) melanoma cells; test: T cell cytotoxicity assay (CellTiter-Glo), A375 against ESO T cells; assay type: cell-based, human
Method: (§2) Expanded T cells were thawed and maintained in culture media for 8-10 h before incubation with cancer cells. Cancer cells were seeded in 96-well plates and allowed to attach for 3-4 h before T cells were added at the appropriate effector to target cell (E:T) ratio. Paired controls with no T cells added were included for each condition. After 18 h, cancer cells were washed twice with PBS to remove T cells, passaged, and cultured for 2 days. Primary patient-derived cell models were not passaged after T cell co-culture. Viability was measured using CellTiter-Glo (Promega G7571). For each E:T ratio, percent survival was calculated as viability of the cells incubated with T cells divided by viability of the paired control that was not incubated with T cells. For example, CD274-overexpressing melanoma cells that were co-cultured with ESO T cells were compared to CD274-overexpressing melanoma cells that were cultured without T cells in parallel. As an alternative cytotoxicity assay, A375 cells stably expressing Gaussia luciferase were co-cultured with ESO T cells. At each time point, 10% of cell culture media was used for the Gaussia luciferase assay (Targeting Systems GAR-2B) to directly measure cytotoxicity.
as §1

[3] = system: CCLF_MELM_0011_T primary patient-derived melanoma model; test: T cell cytotoxicity assay, primary patient-derived melanoma model against AXL or HER2 CAR T cells; assay type: cell-based, human; details: CCLF_MELM_0011_T treated with small molecule inhibitor
Method: as §2, with “cytotoxicity. […]” for “cytotoxicity.”

[4] = system: CCLF_PANC_0014_T primary patient-derived pancreatic adenocarcinoma; test: T cell cytotoxicity assay, primary patient-derived pancreatic adenocarcinoma against HER2 CAR T cells; assay type: cell-based, human; details: CCLF_PANC_0014_T treated with small molecule inhibitor
Method: as §2, with “cytotoxicity. […]” for “cytotoxicity.”

[5] = biological target: Golgi Class I mannosidases IA, IB and IC; details: cited from earlier work

O=C1N[C@@H]2[C@@H](O)[C@@H](O)[C@H](O)[C@@H](CO)N2C1=O [kifunensine]
poly-LacNAc measured by tomato lectin staining [1]: reduced poly-LacNAc added by B3GNT2 in a dosage-dependent manner
Cell survival against T cell cytotoxicity, A375 ([2]; A375 treated with small molecule inhibitor): reduced survival
Cell survival against T cell cytotoxicity ([2]; B3GNT2-overexpressing A375 pretreated with inhibitor, E:T ratio of 3, kifunensine having a stronger effect): reduced A375 survival
Cell survival against T cell cytotoxicity, primary patient-derived melanoma model [3]: reduced survival
Cell survival against T cell cytotoxicity, primary patient-derived pancreatic adenocarcinoma model [4]: reduced survival
Ki [5]: 0.023 µM
